Experimental data published in patent EP4692094A1 (Beijing Konruns Pharmaceutical Co., Ltd., priority 2023, dated 2024).
pIC50: −log10 of the molar value.

Tests used:
KAT6A = target: T1, KAT6A (Homo sapiens, UniProt Q92794); assay: Enzymatic activity assay for KAT6A acetyltransferase (TR-FRET, acetylation of histone substrate H3); assay type: biochemical
T1 construct: purchased active motife (Active Motif) 81223
Protocol: The acetylation effect of KAT6A on histone substrate H3 was determined using the TR-FRET (time-resolved fluorescence resonance energy transfer) method.
• 1) The compounds prepared in the examples of the present disclosure were each dissolved in dimethylsulfoxide to give solutions at a concentration of 10 mmol/L, and then the solutions were diluted to 0.2 mmol/L, i.e., 1 µL of the compound was added to 49 µL of DMSO, and 3-fold dilution was performed to give 10 concentrations. • 2) 50 nL of the test compounds (example compounds) were transferred to 384 reaction plates using Echo, two replicates for each compound, and the plates were centrifuged at a rotation speed of 1000 rpm for 1 min, the final concentration of dimethylsulfoxide (DMSO) being 0.5%. • 3) 2.5 µL of the reaction mixtures obtained in step 2 was added to the 384 reaction plates in step 2), and the plates were centrifuged at 1000 rpm for 1 min and incubated at 25 °C for 10 min. • 4) 2.5 µL of Bio-H3&AcCOA (acetyl-CoA) reaction solution was added to the 384 reaction plates in step 3), and the plates were centrifuged at a rotation speed of 1000 rpm for 1 min and incubated at 25 °C for 90 min. • 5) 5 µL of Eu-Ab& Ulight-SA detection solution was added to the 384 reaction plates in step 4), and the plates were centrifuged at 1000 rpm for 1 min and incubated at 25 °C for 60 min. • 6) The HTRF […] signals were read using a BMG high-throughput drug-screening multi-mode microplate reader.
The acetylation level of the histone H3 was analyzed by the GraphPad Prism 8 software. The reading of the negative control (0.5% DMSO wells) was set as 0% inhibition rate, and the reading of the positive control (wells with the highest concentration of the control compound) was set as 100% inhibition rate. The inhibition rates were calculated, and then IC50 values (half maximal inhibitory concentration) of test compounds were obtained by using a software nonlinear fitting formula; [formula]
Datapositive control: mean of positive control well values; Datanegative control: mean of negative control well values. Table 3. Enzymatic inhibitory activity of example compounds

[1] = system: human breast cancer cell line ZR-75-1; assay: Assay for cell growth inhibitory activity (3D hydrogel culture, CCK-8); assay type: cell-based; details: 96 h; for viability at 0.0001 µM: ZR-75-1, 0.1 nM, read-out: Cell survival rate at example drug concentration 0.1 nM; for viability at 0.001 µM: ZR-75-1, 1 nM, read-out: Cell survival rate at example drug concentration 1 nM; for viability at 0.01 µM: ZR-75-1, 10 nM, read-out: Cell survival rate at example drug concentration 10 nM; for viability at 0.1 µM: ZR-75-1, 100 nM, read-out: Cell survival rate at example drug concentration 100 nM; for viability at 1 µM: ZR-75-1, 1000 nM, read-out: Cell survival rate at example drug concentration 1000 nM
Protocol: The human breast cancer cell line ZR-75-1 (1 × 10^^6 cells per cell culture dish with 100-mm diameter) was cultured in a 1640 culture medium, and 1% double antibiotics (streptomycin and penicillin), 10% fetal bovine serum (FBS), and 1% glutamine (Glumax) were added simultaneously. The cell culture dish was placed at 37 °C with 5% CO2 for 2 days for culture until the cell confluence reached 80%-90% to give cells in the logarithmic growth phase.
• 1) The example compounds were each dissolved in dimethylsulfoxide to give solutions at a concentration of 10 mmol/L, and the solutions were diluted to 250 µmol/L in 10-fold gradient for 5 concentrations, i.e., 0.2 nmol/L, 2 nmol/L, 20 nmol/L, 200 nmol/L, and 2000 nmol/L. • 2) Blank control wells were prepared by adding 0.1% dimethylsulfoxide to the cultured cells, and were used as high-reading control wells; cell-free 3D hydrogel was used as background wells. • 3) The cultured cells were separately added to the compounds in the examples at 0.2 nmol/L, 2 nmol/L, 20 nmol/L, 200 nmol/L, and 2000 nmol/L as test wells, with the same volumes as the original culture solutions.
• 1) The cells were collected, resuspended in a PBS balanced salt solution, and counted; and the cells were mixed with the 3D hydrogel stock solution and prepared into hydrogel cell suspensions with proper density. • 2) The 3D hydrogel cell suspension (5 × 10^^4 cells) was added to each well in 96-well cell culture plates with low surface adsorption, and the plates were incubated at 37 °C with 5% CO2 for 20 min. • 3) The complete culture medium containing the compound prepared in 1.2 with an equal volume to that of the cell suspension in step 2 was added to the 96-well cell culture plate. • 4) The cells were cultured at 37 °C in a 5% CO2 incubator for 96 h.
• 1) The complete culture medium in the upper layer above the hydrogel was pipetted from each well of the 96-well cell culture plate with a vacuum pump or a manual pipette with careful processing to avoid breaking the hydrogel lower layer. • 2) The complete culture medium containing the CCK-8 substrate with an equal volume to that of the original hydrogel was added to each well. • 3) The plate was cultured at 37 °C with 5% CO2 for 1 h. • 4) The 96-well cell culture plate was placed in a microplate reader, and the values of A450 and A630 were separately detected.
Data analysis: The relative inhibitory level was analyzed by using Excel software, and the survival rates of cells under different compound culture conditions were obtained; [formula]
High-reading control well: cells + dimethylsulfoxide; background well: cell-free hydrogel. Table 7. Cell proliferation inhibitory activity of some of example compounds

[2] = In-vivo pharmacokinetic study in rats; design: species or system SD female rats; details: female, SD, rat, plasma, po, intragastric administration, 5 mg/kg; for AUC(0-t): read-out: AUC0-24h
Protocol: 1.1 Instrument: high-performance liquid chromatograph: SHIMADZU LC-30AD; mass spectrum: AB SCIEX mass spectrometer Triple Quad 5500; all measured data were calculated and processed using Microsoft Excel, and relevant pharmacokinetic parameters were calculated using WinNonlin software. The main obtained kinetic parameters are Tmax, T1/2, Cmax, AUC0-24 h, and AUCinf. […] Sample injection amount: 1 µL.
1.2 Animals: three SD female rats were used. The body weight range was 180-300 g. After purchase, the rats were bred in the experimental animal center for two days for later use. The rats were fasted 12 h before administration and 4 h after administration, and given ad libitum access to water during the assay. Blood samples were taken at predetermined time points after intragastric administration.
1.3 Vehicle: 0.5% HPMC (hydroxypropyl methylcellulose) + 0.4% Tween80 + 99.1% water. Preparation of intragastric administration solution: The compound was precisely weighed, the vehicle was added, and then the drug was completely dissolved by ultrasonication at room temperature for 5 min and prepared into a 0.5 mg/mL solution. After the intragastric administration, blood samples were taken at 0.083 h, 0.25 h, 0.5 h, 1.0 h, 2.0 h, 4.0 h, 7.0 h, and 24 h. The blood collection mode is as follows: 0.2 mL of the jugular vein blood was collected, EDTA-K2 was used as an anticoagulation agent, the collected blood sample was transferred into a microcentrifuge tube containing the anticoagulation agent, and the tube was centrifuged at 4 °C and 4000 g for 5 min to separate the plasma. All plasma samples collected were stored at -75±15 °C until analysis.
The compound was precisely weighed and prepared into a standard curve working solution and a quality control working solution at different concentrations. The blank plasma was added and prepared into a plasma standard curve and a quality control sample. LC/MS/MS analysis was performed after pretreatment using a protein precipitation method, and then the concentration of the compounds described above in the plasma was measured. All measured data were collected and processed by the relevant software, and pharmacokinetic parameters were calculated using Winnonlin software. Table 9. Pharmacokinetic parameters of some compounds in the examples in rats

T1 sequence (Q92794 whole entry): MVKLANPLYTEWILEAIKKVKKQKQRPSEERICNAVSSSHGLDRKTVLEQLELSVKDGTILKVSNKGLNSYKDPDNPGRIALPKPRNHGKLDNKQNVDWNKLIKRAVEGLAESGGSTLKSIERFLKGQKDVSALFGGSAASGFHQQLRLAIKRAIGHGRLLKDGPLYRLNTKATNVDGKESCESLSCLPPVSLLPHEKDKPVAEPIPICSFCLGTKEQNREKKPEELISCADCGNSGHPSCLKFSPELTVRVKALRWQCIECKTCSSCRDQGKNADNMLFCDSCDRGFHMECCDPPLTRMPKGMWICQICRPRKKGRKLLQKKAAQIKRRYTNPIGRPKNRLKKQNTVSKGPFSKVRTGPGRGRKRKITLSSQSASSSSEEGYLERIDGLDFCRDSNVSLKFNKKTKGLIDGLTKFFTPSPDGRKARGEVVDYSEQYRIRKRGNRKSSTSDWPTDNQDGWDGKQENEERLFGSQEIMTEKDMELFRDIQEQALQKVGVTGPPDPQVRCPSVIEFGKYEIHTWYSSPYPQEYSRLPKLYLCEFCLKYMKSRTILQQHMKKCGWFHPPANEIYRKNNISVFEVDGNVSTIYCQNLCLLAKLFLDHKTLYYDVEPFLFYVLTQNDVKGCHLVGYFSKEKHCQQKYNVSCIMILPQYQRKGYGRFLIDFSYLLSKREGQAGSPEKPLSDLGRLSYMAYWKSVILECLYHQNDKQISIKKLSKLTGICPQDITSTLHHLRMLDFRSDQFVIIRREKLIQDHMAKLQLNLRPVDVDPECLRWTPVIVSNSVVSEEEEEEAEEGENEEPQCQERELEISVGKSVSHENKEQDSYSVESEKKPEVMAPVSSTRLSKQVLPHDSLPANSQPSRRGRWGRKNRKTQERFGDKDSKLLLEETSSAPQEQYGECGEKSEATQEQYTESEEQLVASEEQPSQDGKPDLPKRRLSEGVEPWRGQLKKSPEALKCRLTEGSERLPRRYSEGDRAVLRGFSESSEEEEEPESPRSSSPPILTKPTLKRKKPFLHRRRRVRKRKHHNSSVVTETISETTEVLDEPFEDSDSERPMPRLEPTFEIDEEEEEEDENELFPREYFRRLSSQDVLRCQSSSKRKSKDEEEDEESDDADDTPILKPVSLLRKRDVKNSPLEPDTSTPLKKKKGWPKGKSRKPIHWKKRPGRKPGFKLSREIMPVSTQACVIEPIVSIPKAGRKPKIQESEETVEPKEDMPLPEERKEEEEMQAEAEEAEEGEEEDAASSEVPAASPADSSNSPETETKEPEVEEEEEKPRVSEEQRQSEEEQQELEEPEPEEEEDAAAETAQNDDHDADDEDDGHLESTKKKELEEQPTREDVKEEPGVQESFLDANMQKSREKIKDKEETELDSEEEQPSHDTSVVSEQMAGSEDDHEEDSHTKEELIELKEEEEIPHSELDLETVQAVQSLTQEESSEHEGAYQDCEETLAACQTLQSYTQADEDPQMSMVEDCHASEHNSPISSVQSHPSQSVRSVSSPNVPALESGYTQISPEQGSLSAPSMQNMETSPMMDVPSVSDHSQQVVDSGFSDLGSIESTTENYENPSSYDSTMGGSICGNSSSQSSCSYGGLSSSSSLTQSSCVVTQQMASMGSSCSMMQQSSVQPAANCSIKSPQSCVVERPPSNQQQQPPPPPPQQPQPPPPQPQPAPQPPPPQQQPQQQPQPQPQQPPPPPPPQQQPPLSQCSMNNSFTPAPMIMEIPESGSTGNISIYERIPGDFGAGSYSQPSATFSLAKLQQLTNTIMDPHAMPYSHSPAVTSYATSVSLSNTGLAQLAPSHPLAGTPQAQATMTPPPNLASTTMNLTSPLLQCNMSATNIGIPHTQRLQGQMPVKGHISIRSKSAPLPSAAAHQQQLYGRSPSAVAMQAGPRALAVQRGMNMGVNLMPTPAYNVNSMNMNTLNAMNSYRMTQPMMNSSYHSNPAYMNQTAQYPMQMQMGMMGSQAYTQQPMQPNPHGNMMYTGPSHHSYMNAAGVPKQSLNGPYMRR

Row | Structure (SMILES) | pIC50 (KAT6A) | AUC(0-inf) [2] | Cmax [2] | Tmax [2] | AUC(0-t) [2] | half-life [2] | viability at 0.0001 µM [1] | viability at 0.001 µM [1] | viability at 0.01 µM [1] | viability at 0.1 µM [1] | viability at 1 µM [1]
1 | COc1nc(Cn2cccn2)cc2onc(NS(=O)(=O)c3cccc4c3OCC4)c12 [Example 1, N-(6-((1H-pyrazol-1-yl)methyl)-4-methoxyisoxazolo[4,5-c]pyridin-3-yl)-2,3-dihydrobenzofuran-7-sulfonamide] | 8.13 | – | – | – | – | – | 95% | 80% | 54% | 40% | 30%
2 | COc1ccc2c(c1S(=O)(=O)Nc1noc3cc(Cn4cccn4)nc(OC)c13)CCCC2 [Example 3] | 8.75 | – | – | – | – | – | 71% | 55% | 43% | 40% | 29%
3 | COc1ccc2cccnc2c1S(=O)(=O)Nc1noc2cc(Cn3cccn3)nc(OC)c12 [Example 11, N-(6-((1H-Pyrazol-1-yl)methyl)-4-methoxyisoxazolo[4,5-c]pyridin-3-yl)-7-methoxyquinoline-8-sulfonamide] | 9.11 | 32 µg·h/mL | 3310 ng/mL | 49.8 min | 32 µg·h/mL | – | – | – | – | – | –
4 | COc1cc2c(c(OC)c1S(=O)(=O)Nc1noc3cc(Cn4cccn4)nc(OC)c13)CCC2 [Example 62, N-(6-((1H-Pyrazol-1-yl)methyl)-4-methoxyisoxazolo[4,5-c]pyridin-3-yl)-4,6-dimethoxy-2,3-dihydro-1H-indene-5-sulfonamide] | 9.08 | 450 µg·h/mL | 25600 ng/mL | 70.2 min | 356 µg·h/mL | ≤ 600 min | – | – | – | – | –
5 | COc1cc2occc2cc1S(=O)(=O)Nc1noc2cc(Cn3cccn3)nc(OC)c12 [Example 108, N-(6-((1H-pyrazol-1-yl)methyl)-4-methoxyisoxazolo[4,5-c]pyridin-3-yl)-6-methoxybenzofuran-5-sulfonamide] | 8.90 | – | – | – | – | – | – | – | – | – | –

Further compounds by rising pIC50 (KAT6A), results first:

Row | pIC50 (KAT6A) | AUC(0-inf) [2] | Cmax [2] | Tmax [2] | AUC(0-t) [2] | half-life [2] | Structure (SMILES) | viability at 0.0001 µM [1] | viability at 0.001 µM [1] | viability at 0.01 µM [1] | viability at 0.1 µM [1] | viability at 1 µM [1]
6 | 7.16 | – | – | – | – | – | COc1nc(Cc2cocn2)cc2onc(NS(=O)(=O)c3cccc4c3OCCO4)c12 [Example 31, N-(4-Methoxy-6-(oxazol-4-ylmethyl)isoxazolo[4,5-c]pyridin-3-yl)-2,3-dihydrobenzo[b][1,4]dioxine-5-sulfonamide] | – | – | – | – | –
7 | 7.17 | – | – | – | – | – | COc1nc(Cn2cccn2)cc2onc(NS(=O)(=O)c3cccc4ccn(C)c34)c12 [Example 49, N-(6-((1H-Pyrazol-1-yl)methyl)-4-methoxyisoxazolo[4,5-c]pyridin-3-yl)-1-methyl-1H-indole-7-sulfonamide] | – | – | – | – | –
8 | 8.51 | 1300 µg·h/mL | 31600 ng/mL | 19.8 min | 502 µg·h/mL | 1480 min | COc1nc(Cn2cccn2)cc2onc(NS(=O)(=O)c3cccc4c3ccn4C)c12 [Example 6, N-(6-((1H-Pyrazol-1-yl)methyl)-4-methoxyisoxazolo[4,5-c]pyridin-3-yl)-1-methyl-1H-indole-4-sulfonamide] | 74% | 66% | 45% | 38% | 25%
9 | 8.92 | – | – | – | – | – | COc1cc2c(c(S(=O)(=O)Nc3noc4cc(Cn5cccn5)nc(OC)c34)c1)OCCC2 [Example 84, N-(6-((1H-Pyrazol-1-yl)methyl)-4-methoxyisoxazolo[4,5-c]pyridin-3-yl)-6-methoxy-3,4-dihydro-1H-benzopyran-8-sulfonamide] | – | – | – | – | –
10 | 9.18 | – | – | – | – | – | COc1ccc2c(c1S(=O)(=O)Nc1noc3cc(Cn4cccn4)nc(OC)c13)OCO2 [Example 58, N-(6-((1H-Pyrazol-1-yl)methyl)-4-methoxyisoxazolo[4,5-c]pyridin-3-yl)-5-methoxy-1,3-benzodioxole-4-sulfonamide] | – | – | – | – | –
